Publication PMC3849007 (Journal of Experimental & Clinical Cancer Research : CR, 2013)

Key:
[1] = system: Telomere dysfunction Induced Foci in BJ-EHLT fibroblasts; assay: TIF analysis (γH2AX/TRF1 co-localization); assay type: cell-based, human; settings: 24 hrs; for number of TIFs per nucleus: mean
Protocol: (§1) Cells were fixed in 2% formaldehyde and permeabilized in 0.25% Triton X100 in PBS for 5 min at room temperature. For immunolabeling, cells were incubated with primary antibody, then washed in PBS and incubated with the secondary antibodies. The following primary antibodies were used: pAb and mAb anti-TRF1 (Abcam Ltd.; Cambridge UK); mAb (Upstate, Lake Placid, NY) and pAb anti-γH2AX (Abcam). The following secondary antibody were used: TRITC conjugated Goat anti Rabbit, FITC conjugated Goat anti Mouse (Jackson ImmunoResearch Europe Ltd., Suffolk, UK). Fluorescence signals were recorded by using a Leica DMIRE2 microscope equipped with a Leica DFC 350FX camera and elaborated by a Leica FW4000 deconvolution software (Leica, Solms, Germany). This system permits to focus single planes inside the cell generating 3D high-resolution images. For quantitative analysis of γH2AX positivity, 200 cells on triplicate slices were scored. For TIF’s analysis, in each nucleus a single plane was analyzed and at least 50 nuclei per sample were scored.

M2 muscarinic receptor = biological target: T1, M2 muscarinic receptor (Homo sapiens, UniProt P08172); assay: Cerep ExpresSProfile receptor screen, M2; settings: data not shown, read-out: % inhibition of ligand binding, M2 muscarinic receptor
T1 construct: purchased Cerep (ExpresSProfile screen, contract service)
Protocol: (§2) To investigate the molecular bases of cardio toxicity, the agent was tested for its potential to interact with a panel of 54 pharmacological receptors, the majority being human recombinant receptors (Cerep ExpresSProfile screen) (http://www.cerep.fr).

[2] = design: method as in doi:10.1016/S0040-4020(01)90102-4; settings: cited from earlier work
M3 muscarinic receptor = biological target: T2, M3 muscarinic receptor (Homo sapiens, UniProt P20309); assay: Cerep ExpresSProfile receptor screen, M3; settings: data not shown, read-out: % inhibition of ligand binding, M3 muscarinic receptor
T2 construct: purchased Cerep (ExpresSProfile screen, contract service)
Protocol: as §2

M1 muscarinic receptor = biological target: T3, M1 muscarinic receptor (Homo sapiens, UniProt P11229); assay: Cerep ExpresSProfile receptor screen, M1; settings: data not shown, read-out: % inhibition of ligand binding, M1 muscarinic receptor
T3 construct: purchased Cerep (ExpresSProfile screen, contract service)
Protocol: as §2

[3] = system: h-Tel (anti-parallel) quadruplex; assay: CD thermal unfolding of h-Tel quadruplex; assay type: binding, human; settings: for CD study thermal stability ∆Tm: compared to h-Tel without bound ligand (Tm 70 ± 3); for CD study thermal stability Tm: h-Tel 4 μM with 3.5 mol.equiv. ligand, K+ solution, unfolding at 290 nm
Protocol: CD spectra were recorded on an Applied Photophysics Pi-Star-180 spectrophotometer (Applied Photophysics Ltd, Surrey, UK). The optical system was configured with a 75 W Xe lamp, circular light polarizer and end-mounted photomultiplier. The instrument had previously been calibrated with (D)-camphorsulfonic acid. Temperature was regulated using a Neslab RTE-300 circulating programmable water bath (Neslab Inc). CD spectra were recorded at 298 K in a 10 mm path length cell over a wavelength range of 215–345 nm in steps of either 1 0r 2 nm, with 3 nm entrance/exit slit widths: the number of counts was set to 10,000 with adaptive sampling set to 500,000. The spectra were corrected by subtracting the spectrum of the same buffer solution of 100 mM potassium chloride and 10 mM potassium phosphate at pH 7.0. Annealing and melting profiles were recorded using a thermoelectric temperature controller (Melcor) on 4 μM DNA samples with and without 3.5 mol.equiv. of ligands using 0.5 K temperature increments and a cooling or heating rate of 0.2 K/min over the temperature range 298-368 K.
This analysis was extended to examine the effects of ligand binding on thermal stability by measuring the unfolding curves at 290 nm of the complexes formed in K^+ solution, corresponding to the CD spectra shown in Figure 4a. Monitoring the thermal unfolding transition for h-Tel produces a sigmoidal unfolding curve with a transition mid-point Tm value of 72 ± 3°C (Figure 4c). All three ligands show significant effects in enhancing the stability of the quadruplex by shifting the Tm values to higher temperatures (∆Tm ~ 15-19°C compared to h-Tel without bound ligands) (Table 1).

[4] = system: h-Tel quadruplex (Q) DNA, 5'-biotin-d[AG3(T2AG3)3] (DNA, G4) AGGGTTAGGGTTAGGGTTAGGG; assay: surface plasmon resonance; settings: 200 mM KCl; 10 mM HEPES, 3 mM EDTA, 0.01% P20, pH 7.4
[5] = system: duplex (D) DNA hairpin, 5'-biotin-CGA3T3C(CT)2GA3T3CG (DNA, hairpin) CGAAATTTCCTCTGAAATTTCG; assay: surface plasmon resonance; settings: 200 mM KCl; 10 mM HEPES, 3 mM EDTA, 0.01% P20, pH 7.4
NCI60 panel = NCI60 panel growth inhibition; assay type: cell-based, human
[6] = system: γH2AX in BJ-EHLT fibroblasts; assay: Immunofluorescence for γH2AX (DNA damage response); assay type: cell-based, human; settings: 0.5 μM, 24 hrs
Protocol: as §1

BJ-hTERT fibroblasts = assay: Proliferation assay, normal telomerised fibroblasts; assay type: cell-based, human; settings: 0.5 μM, culture day 2 to 8
Protocol: BJ fibroblasts expressing hTERT (BJ-hTERT) or hTERT and SV40 early region (BJ-EHLT), were obtained as previously reported. Cells were grown in Dulbecco Modified Eagle Medium (D-MEM, Invitrogen Carlsbad, CA, USA) supplemented with 10% fetal calf serum, 2 mM L-glutamin and antibiotics.
5 × 10^4 cells were seeded in 60-mm Petri plates (Nunc, MasciaBrunelli, Milano, Italy) and 24 h after plating, 0.5 μM of freshly dissolved compound was added to the culture medium. Cell counts (Coulter Counter, Kontron Instruments, Milano, Italy) and viability (trypan blue dye exclusion) were determined daily, from day 2 to day 8 of culture.

T1 sequence (P08172 whole entry): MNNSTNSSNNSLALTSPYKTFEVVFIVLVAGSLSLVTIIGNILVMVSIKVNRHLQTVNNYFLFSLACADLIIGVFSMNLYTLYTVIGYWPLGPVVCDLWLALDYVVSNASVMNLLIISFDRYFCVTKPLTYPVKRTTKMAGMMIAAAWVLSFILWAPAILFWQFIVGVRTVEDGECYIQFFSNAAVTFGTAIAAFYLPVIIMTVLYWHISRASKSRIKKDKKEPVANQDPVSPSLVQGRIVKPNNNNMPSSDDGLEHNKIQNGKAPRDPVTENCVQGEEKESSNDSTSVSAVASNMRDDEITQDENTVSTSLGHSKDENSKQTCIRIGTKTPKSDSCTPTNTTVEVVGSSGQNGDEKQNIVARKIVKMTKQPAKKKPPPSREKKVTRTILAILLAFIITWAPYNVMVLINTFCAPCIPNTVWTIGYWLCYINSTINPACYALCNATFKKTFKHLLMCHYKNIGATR
T2 sequence (P20309 whole entry): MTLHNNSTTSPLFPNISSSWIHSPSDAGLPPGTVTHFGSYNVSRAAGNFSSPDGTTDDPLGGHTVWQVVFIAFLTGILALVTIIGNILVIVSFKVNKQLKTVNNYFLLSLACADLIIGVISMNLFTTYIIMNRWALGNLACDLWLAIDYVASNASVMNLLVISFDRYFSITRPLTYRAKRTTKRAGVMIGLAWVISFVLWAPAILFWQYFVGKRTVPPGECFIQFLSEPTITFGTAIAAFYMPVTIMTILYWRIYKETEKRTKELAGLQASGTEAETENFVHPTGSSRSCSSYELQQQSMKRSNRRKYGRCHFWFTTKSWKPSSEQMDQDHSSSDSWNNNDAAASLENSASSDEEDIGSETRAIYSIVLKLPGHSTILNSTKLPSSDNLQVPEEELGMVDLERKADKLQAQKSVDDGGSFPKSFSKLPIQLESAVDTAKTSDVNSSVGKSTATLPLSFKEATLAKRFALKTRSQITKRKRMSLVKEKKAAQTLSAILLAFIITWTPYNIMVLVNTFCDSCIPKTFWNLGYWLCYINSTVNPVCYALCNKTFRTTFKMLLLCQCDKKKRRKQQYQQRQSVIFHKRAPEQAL
T3 sequence (P11229 whole entry): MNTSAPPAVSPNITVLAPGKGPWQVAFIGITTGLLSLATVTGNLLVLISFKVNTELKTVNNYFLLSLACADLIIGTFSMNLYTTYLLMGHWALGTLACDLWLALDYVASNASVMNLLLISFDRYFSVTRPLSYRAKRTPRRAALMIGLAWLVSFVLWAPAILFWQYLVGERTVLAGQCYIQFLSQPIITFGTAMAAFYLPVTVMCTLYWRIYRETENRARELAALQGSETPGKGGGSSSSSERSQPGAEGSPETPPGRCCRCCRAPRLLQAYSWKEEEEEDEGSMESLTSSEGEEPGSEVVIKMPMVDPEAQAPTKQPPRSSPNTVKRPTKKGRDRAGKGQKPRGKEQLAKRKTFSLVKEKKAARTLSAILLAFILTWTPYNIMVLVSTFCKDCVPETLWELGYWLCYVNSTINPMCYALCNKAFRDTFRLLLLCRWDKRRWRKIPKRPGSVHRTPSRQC

SMILES | number of TIFs per nucleus [1] | inhibition at 1 µM (M2 muscarinic receptor) | solubility [2] | inhibition at 1 µM (M3 muscarinic receptor) | inhibition at 1 µM (M1 muscarinic receptor) | CD study thermal stability ∆Tm [3] | CD study thermal stability Tm [3] | K [4] | K [5] | percentage of TIF-positive cells ([1]; cells with more than four γH2AX/TRF1 co-localizations) | GI50 (NCI60 panel; Homo sapiens, NCI data, read-out: Mean GI50 value from the NCI60 panel) | effect on cell proliferation in a panel of different histotype tumor cell lines (NCI60 panel; several human cancer cell lines) | percentage of cells positive for γH2AX [6] | inhibition of cell proliferation in normal telomerized fibroblasts (BJ-hTERT fibroblasts)
Cc1cc2c3c([n+](C)c4ccc(F)cc4c3c1)-c1cc(F)ccc1N2C [Compound 1, 3,11-Difluoro-6,8,13-trimethyl-8H-quino[4,3,2-kl]acridinium metho-sulfate] | ca. eight | > 95% | high solubility | > 95% | > 95% | 16 °C | 86 ± 3 °C | 8.3e+06 M⁻¹ | 600000 M⁻¹ | – | – | – | – | –
CC(=O)Nc1ccc2c(c1)c1cccc3c1c([n+]2C)-c1ccccc1N3C [Compound 3, 3-acetylamino-8,13-dimethyl-8H-quino[4,3,2-kl]-acridinium iodide] | six | – | – | – | – | 15 °C | 85 ± 3 °C | 8e+06 M⁻¹ | 700000 M⁻¹ | significant but less pronounced effect | 81.3 µM | maintained an anti-proliferative effect | less potent than the lead compound | did not induce inhibition of cell proliferation
